Assay results published in publication PMC6412019, “Discovery of NV-5138, the first selective Brain mTORC1 activator” (Scientific Reports, 2019).
Blank lines part the entries; values can stand above or below the molecule they belong to.

Tests used:
[1] = target: T1, Sestrin2/GATOR2 interaction (Homo sapiens, UniProt P58004); assay: Cell-free Sesn2/WDR24 (GATOR2) interaction assay on immunoprecipitates; assay type: biochemical; settings: added to immunoprecipitated complexes from amino acid-starved cells for 10 min
T1 construct: expressed in transfected cells; host or cells: HEK-293T stably expressing Flag-WDR24; Sestrin2 and the other GATOR2 subunits endogenous
T1 sequence (P58004 1-480): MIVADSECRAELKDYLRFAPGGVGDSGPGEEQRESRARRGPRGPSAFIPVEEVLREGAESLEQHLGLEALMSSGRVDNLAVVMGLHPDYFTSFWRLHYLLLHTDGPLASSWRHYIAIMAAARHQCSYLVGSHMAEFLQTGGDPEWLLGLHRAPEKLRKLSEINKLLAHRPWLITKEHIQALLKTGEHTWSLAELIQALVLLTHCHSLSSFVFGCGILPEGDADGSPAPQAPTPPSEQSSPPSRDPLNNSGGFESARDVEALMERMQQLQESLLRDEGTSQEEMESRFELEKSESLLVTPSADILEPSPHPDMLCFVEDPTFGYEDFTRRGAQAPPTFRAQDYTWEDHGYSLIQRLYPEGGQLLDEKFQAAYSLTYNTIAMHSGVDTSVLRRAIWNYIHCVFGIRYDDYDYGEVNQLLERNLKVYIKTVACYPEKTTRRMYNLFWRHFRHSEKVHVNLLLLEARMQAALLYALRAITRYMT
Method: (§1) Expression of flag-WDR24 allows for immunoprecipitation of the Sestrin2/GATOR2 complex from amino acid-starved cells with an anti-flag antibody. […] Finally, to determine whether Sestrins and the GATOR pathway are required for NV-5138 activity, HEK-293T cells null for all three Sestrin isoforms or the GATOR1 component Nprl3 were obtained.
(§2) Cell lysates were prepared as previously described. Lysates were cleared by centrifugation at 13,200 rpm at 4 °C for 8 min. For anti-FLAG IPs, the FLAG-M2 affinity gel was added to approximately 2 mg of lysates and incubated with rotation for 3 h at 4 °C. Following IP, the beads were washed one time with Triton wash buffer containing 500 mM NaCl. […] After compound incubation, IPs were collected by centrifugation. Immunoprecipitated proteins were denatured and, resolved by SDS-PAGE. Membranes were imaged using the LI-COR imaging system. Reagents and antibodies used are listed in Supplementary Information.

[2] = target: T1, Sestrin2/GATOR2 interaction; assay: Sestrin2/GATOR2 interaction in intact flag-WDR24 HEK-293T cells; assay type: cell-based; settings: leucine-starved 50 min, compound 10 min
Method: as §1
(§3) All cell lines were cultured in DMEM supplemented with 10% FBS and maintained at 37 °C and 5% CO2. HEK-293T cells stably expressing Flag-WDR24 was generated as previously described. […] Details of reagent used for cell culture can be found in Supplementary Information.
as §2

[3] = test system: NMDA receptors expressed in Xenopus laevis oocytes; assay: Two electrode voltage-clamp electrophysiology of NMDA receptors in oocytes; assay type: cell-based; settings: 300 µM final concentration; data not shown
Method: (§4) While mTORC1 activation by NV-5138 appears dependent upon an intact Sestrins/GATOR2 pathway and not upon protein incorporation or transamination by BCAT, NV-5138 was tested for off-target activity in the Eurofins/Cerep panel of over 100 potential targets. The selectivity panel included AMPA, kainate and NMDA receptor isoforms (Supplementary Table 2a–c). […] As observed in the Eurofins/Cerep panel, there was no effect of NV-5138 at 300 µM final concentration (data not shown).

[4] = test system: Synapsin1, GluR1 and PSD95; assay: Synaptic proteins in rat prefrontal cortex synaptoneurosomes (immunoblot); assay type: in vivo; settings: 24 h after single 160 mg/kg PO
Method: We investigated the activation of mTORC1 in the brain further by determining the time course of mTORC1 activation following a single administration of NV-5138. […] The decrease in mTORC1 signaling in the NV-5138 treated group 24 h following administration while significant was not consistently observed. […] It should be noted that while the activation of mTORC1 in the prefrontal cortex correlated with compound exposure, the increased expression of synaptic proteins was observed well after compound levels have dropped and mTORC1 activity was back to baseline/vehicle levels.
After compound administration, animals were sacrificed by decapitation using a guillotine, immediately Specific regions of the brain were quickly microdissected, tissues collected, and flash frozen in liquid nitrogen. Peripheral tissues and all brain were homogenized using MP homogenizer in Lysis Buffer (Cell lysis buffer: 1% Triton X-100, 50 mM HEPES pH 7.4, 100 mM NaCl, 2 mM EDTA, 10 mM Beta-glycerophosphate, 10 mM Sodium pyrophosphate, and 1 protease inhibitor) at 4 °C. Synaptic proteins and mTORC1 analyses in each brain region were conducted on crude synaptoneurosome preparations as previously described. Equal amounts of total protein from each sample were denatured and, resolved by SDS-PAGE. Membranes were imaged using the LI-COR imaging system. […]

[5] = Pharmacokinetic analysis in rats; assay type: in vivo, rat
Method: To determine oral bioavailability, male SD rats were dosed I.V at 1 mg/kg and PO at 5 mg/kg with NV-5138 in 0.5% MC/0. 1% Tween80 (n = 3 per time point per group). Rats were fasted overnight for PO group and were given free access to food and water for IV group. After dosing, tail-vein blood was collected at the indicated time points into K2EDTA tubes and centrifuged at 2,000 g for 5 min to collect plasma. To measure levels of NV-5138 in the brain and plasma, rats were dosed PO at 160 mg/kg (n = 5), sacrificed 1 h after dosing via decapitation and trunk blood and one hemisphere of the brain was collected. Plasma was combined with acetonitrile containing pregabalin as an internal standard and centrifuged, brain and heart samples were homogenized directly into acetonitrile. Levels of NV-5138 were quantified via LC-MS/MS. WinNonlin V 6.2 statistics software (Pharsight Corporation, California, USA) was used to generate pharmacokinetics parameters using non-compartmental model.

[6] = test system: panel of 107 adverse drug effect targets; assay: Eurofins/Cerep off-target selectivity panel; settings: up to 300 µM; threshold >50% binding/response; incl. AMPA, kainate and NMDA receptor isoforms
Method: as §4
NV-5138 was tested in duplicate at a concentration of 300 µM for potential interaction with a panel of 107 adverse drug effect targets including 21 transporters, receptors, ion channels and enzymes expressed in the CNS (Eurofins Pharma Discovery Services). The threshold to exclude a significant interaction was set as a binding/response of >50%.

mTORC1 = mTORC1 activation (phosphorylated S6K1 Thr389 immunoblot) in leucine-starved HEK-293T cells; assay type: cell-based, human
Method: as §1, §3, §2

[7] = cited from earlier work

bioavailability ([5]; male, SD, rat, plasma, oral, 5 mg/kg, male SD rats, IV 1 mg/kg and PO 5 mg/kg): 100%
half-life ([5]; male, SD, rat, plasma, other: intravenous and oral, rats, intravenous and oral dosing, read-out: elimination half-life in plasma (converted)): ~3 h
SMILES: CC(C)(C[C@H](N)C(=O)O)C(F)F [NV-5138, (S)-2-amino-5,5-difluoro-4,4-dimethylpentanoic acid]
disruption of Sestrin2/GATOR2 interaction, cell-free [1]: rapidly disrupts the Sestrin2/GATOR2 interaction in a dose-dependent manner
disruption of GATOR2-bound Sestrin2 in intact cells [2]: resulted in disruption of GATOR2-bound Sestrin2
functional inhibition of maximally-activated NMDA receptors [3]: no effect
synaptic proteins Synapsin1, GluR1 and PSD95 versus vehicle [4]: significant increase
brain versus plasma exposure ([5]; rats, 160 mg/kg PO, 160 mg/kg): brain and plasma concentrations of NV-5138 are equal
off-target activity in selectivity panel [6]: no activity against any target
mTORC1 activation (pS6K1) (mTORC1; leucine-starved unedited HEK-293T cells): activates mTORC1

SMILES: CC(C)C[C@H](N)C(=O)O [Leucine, L-leucine, reference compound]
cerebrospinal fluid (CSF) levels as fraction of plasma concentrations [7]: 5–10%
mTORC1 activation (pS6K1) (mTORC1; leucine-starved HEK-293T cells null for all three Sestrin isoforms): refractory
mTORC1 activation (pS6K1) (mTORC1; leucine-starved HEK-293T cells null for the GATOR1 component Nprl3): refractory
